Values quoted from earlier work as cited in patent US10545073B2, “Method and instrument for extracting a component from a sample” (priority 2016, dated 2020).

Row | log P | Structure (SMILES)
1 | 3.89 | Fc1ccc([C@@H]2CCNC[C@H]2COc2ccc3c(c2)OCO3)cc1 [Paroxetine]
2 | 1.23 | CNC(=C[N+](=O)[O-])NCCSCc1ccc(CN(C)C)o1 [Ranitidine]
3 | 0.01 | CC(C)(C)NCC(O)c1ccc(O)c(CO)c1 (stereo not shown) [Salbutamol]
4 | 4.81 | CN[C@H]1CC[C@@H](c2ccc(Cl)c(Cl)c2)c2ccccc21 [Sertraline]
